Experimental data published in the NIST ThermoML archive (doi:10.1016/j.jct.2014.07.017).

Experiment: mn = molality of the nth substance listed, in mol/kg
Settings: 298.15 K, 100 kPa, Liquid, Direct current cell with electrodes

CCNCC(O)c1cccc(O)c1.Cl (stereo unspecified) [1-(3-hydroxyphenyl)-2-ethylaminoethanol hydrochloride] + O
Settings	electrical conductivity [S/m]
m1 = 0.01028	0.03
m1 = 0.01115	0.033
m1 = 0.01209	0.037
m1 = 0.01313	0.041
m1 = 0.01425	0.045
m1 = 0.01546	0.051
m1 = 0.01677	0.056
m1 = 0.0182	0.061
m1 = 0.01896	0.065
m1 = 0.01974	0.068
m1 = 0.02057	0.072
m1 = 0.02143	0.075
m1 = 0.02232	0.078
m1 = 0.02325	0.082
m1 = 0.02422	0.087
m1 = 0.02523	0.09
m1 = 0.02628	0.095
m1 = 0.02737	0.101
m1 = 0.02851	0.105
m1 = 0.0297	0.109
m1 = 0.03094	0.115
m1 = 0.03222	0.12
m1 = 0.03357	0.126
m1 = 0.03497	0.132
m1 = 0.03643	0.138
m1 = 0.03795	0.145
m1 = 0.03953	0.15
m1 = 0.04117	0.155
m1 = 0.04289	0.159
m1 = 0.04468	0.165
m1 = 0.04654	0.171
m1 = 0.04848	0.177
m1 = 0.0505	0.185
m1 = 0.0526	0.191
m1 = 0.05479	0.195
m1 = 0.05708	0.203
m1 = 0.05945	0.208
m1 = 0.06193	0.216
m1 = 0.06451	0.224
m1 = 0.0672	0.232
m1 = 0.07	0.241
